According to publication PMC11079024, “Identification of a family of species-selective complex I inhibitors as potential anthelmintics” (Nature Communications, 2024):
“And” between values parts separate entries of the source, which are not always exact repeats. Identical values can stand only once. Like-named read-outs stand apart in the source and are kept apart here.

What was measured:
[1] = test system: ben-1 mutant (ECA882) C. elegans; experiment: microbe, parasite or virus in culture; settings: Caenorhabditis elegans; for viability at 15.6 µM / viability at 31.3 µM / viability at 62.5 µM / viability at 125 µM / viability at 250 µM / viability at 500 µM / viability at 1000 µM: read-out: C. elegans ben-1(e1880) development/viability
Summary of the method: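 L1 larvae (~2 worms/μL in M9) in liquid NGM with 2-fold concentrated E. coli HB101, compound at 1% DMSO, 6 days at 20 °C shaking 165 rpm. Well images scored as summed worm-associated pixels, normalized to DMSO controls; relative viability averaged over at least three biological replicates.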

[2] = molecular target: B. taurus (heart) complex I (Bos taurus, UniProt P03887+P17694+P42026); experiment: biochemical; format: biochemical; settings: for IC50: read-out: B. taurus Complex I IC50; for Log IC50 B. taurus complex I: log10 of IC50 in µM, B. taurus mitochondria
Summary of the method: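 Complex I activity followed as DCIP reduction (600 nm, 30 s reads, 15 min) with 80 μM NADH and 60 μM decylubiquinone in 25 mM KPi pH 7.5 containing 2 μM antimycin A and 2 mM KCN. Freeze-thawed mouse or bovine heart mitochondria at 0.2 mg/mL; initial-rate percent of solvent control, single-point 100 μM or dose-response.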

L1 wild-type C. elegans = experiment: microbe, parasite or virus in culture; settings: Caenorhabditis elegans, read-out: C. elegans KCN Survival Assay LC50, estimated from fitted dose-response curves; mean of at least two biological replicates
[3] = read-out: C. elegans (ben-1) Development & Viability Assay LC50
[4] = read-out: C. elegans ben-1 log10 LC50 (converted)
[5] = B. taurus (heart) mitochondria, mean of replicates, read-out: percent (%) in vitro complex I activity relative to solvent control
[6] = B. taurus (heart) mitochondria, single replicate, read-out: percent (%) in vitro complex I activity relative to solvent control
[7] = B. taurus (heart) mitochondria, Mean of replicates, read-out: in vitro complex I activity relative to solvent control
[8] = B. taurus (heart) mitochondria, single replicate, read-out: in vitro complex I activity relative to solvent control

B. taurus (heart) complex I, sequence (P03887 whole entry): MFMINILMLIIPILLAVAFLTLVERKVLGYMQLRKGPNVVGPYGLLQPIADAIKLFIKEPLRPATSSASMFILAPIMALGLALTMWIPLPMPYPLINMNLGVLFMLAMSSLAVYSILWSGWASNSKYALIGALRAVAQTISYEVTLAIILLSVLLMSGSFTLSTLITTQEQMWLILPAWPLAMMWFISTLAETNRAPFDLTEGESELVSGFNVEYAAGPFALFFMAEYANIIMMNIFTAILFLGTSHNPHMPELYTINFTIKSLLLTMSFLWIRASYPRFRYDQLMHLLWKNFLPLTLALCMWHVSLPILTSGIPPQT
B. taurus (heart) complex I, sequence (P17694 34-463): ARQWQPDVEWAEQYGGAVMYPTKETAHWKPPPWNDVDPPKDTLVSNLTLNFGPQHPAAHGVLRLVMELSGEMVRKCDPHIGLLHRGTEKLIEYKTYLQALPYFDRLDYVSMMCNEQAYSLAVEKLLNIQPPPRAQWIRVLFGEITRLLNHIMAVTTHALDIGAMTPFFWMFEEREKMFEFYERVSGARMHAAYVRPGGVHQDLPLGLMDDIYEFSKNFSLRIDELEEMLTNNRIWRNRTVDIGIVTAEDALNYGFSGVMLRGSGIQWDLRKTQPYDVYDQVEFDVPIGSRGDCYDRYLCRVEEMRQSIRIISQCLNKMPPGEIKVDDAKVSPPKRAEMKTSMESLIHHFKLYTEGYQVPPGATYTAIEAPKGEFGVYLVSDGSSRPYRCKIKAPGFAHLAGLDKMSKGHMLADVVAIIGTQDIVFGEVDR
B. taurus (heart) complex I, sequence (P42026 38-216): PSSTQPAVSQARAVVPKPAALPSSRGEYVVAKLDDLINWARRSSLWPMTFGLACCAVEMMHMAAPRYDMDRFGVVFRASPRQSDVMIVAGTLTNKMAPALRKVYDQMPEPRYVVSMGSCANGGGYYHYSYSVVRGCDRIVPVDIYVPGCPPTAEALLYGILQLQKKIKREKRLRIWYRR

Brc1ccc(Cn2cnc3ccccc32)cc1 [Compound 5542661]
LC50 [1, 3]: 41.4 µM
LC50 [1, 4]: 41.4 µM
IC50 ([2]; B. taurus heart mitochondria, estimated from fitted dose-response curves): 3.35 µM
Log IC50 B. taurus complex I [2]: 0.53 µM
LC50 (L1 wild-type C. elegans): 7.75 µM

CCCn1c(COc2ccc(C)cc2)nc2ccccc21 [Compound 6944471]
LC50 [1, 3]: > 1000 µM
viability at 15.6 µM [1]: 98%
viability at 31.3 µM [1]: 100%
viability at 62.5 µM [1]: 100%
viability at 125 µM [1]: 100%
viability at 250 µM [1]: 100%
viability at 500 µM [1]: 62.1%
viability at 1000 µM [1]: 100%
LC50 ([1]; read-out: C. elegans ben-1 LC50): > 500 µM
LC50 [1, 4]: > 500 µM
LC50 (L1 wild-type C. elegans): 10.6 µM

Cc1ccc(CSCc2nc3ccccc3[nH]2)cc1 [Compound 7121781]
LC50 [1, 3]: 468 µM
viability at 15.6 µM [1]: 87.2%
viability at 31.3 µM [1]: 91.7%
viability at 62.5 µM [1]: 100%
viability at 125 µM [1]: 87.1%
viability at 250 µM [1]: 86.1%
viability at 500 µM [1]: 47.1%
viability at 1000 µM [1]: 8.1%
LC50 [1, 4]: 468 µM
LC50 (L1 wild-type C. elegans): 9.79 µM

CC(C)Cc1ccc(C(C)c2nc3ccccc3n2C)cc1 (centres unmarked) [NPD8790]
LC50 [1, 3]: > 1000 µM
remaining activity at 0.125 µM ([2]; 0.125 µM, B. taurus (heart) mitochondria, mean of replicates, read-out: percent (%) in vitro complex I activity relative to solvent control): 101%
remaining activity at 0.313 µM [2, 5]: 112%
remaining activity at 0.313 µM [2, 6]: 118%
remaining activity at 0.625 µM [2, 5]: 103%
remaining activity at 0.625 µM [2, 6]: 96.1%
remaining activity at 1.5 µM [2, 5]: 107%
remaining activity at 3 µM [2, 5]: 104%
remaining activity at 15 µM [2, 5]: 79.4%
remaining activity at 37.5 µM [2, 5]: 38%
remaining activity at 37.5 µM [2, 6]: 38.8%
remaining activity at 75 µM [2, 5]: 13.6%
remaining activity at 0.06 µM ([2]; B. taurus (heart) mitochondria, 0.06 µM, Mean of replicates, read-out: in vitro complex I activity relative to solvent control): 103%
remaining activity at 0.13 µM ([2]; B. taurus (heart) mitochondria, 0.13 µM, Mean of replicates, read-out: in vitro complex I activity relative to solvent control): 101%
remaining activity at 0.313 µM [2, 7]: 112%
remaining activity at 0.313 µM [2, 8]: 118%
remaining activity at 0.625 µM [2, 7]: 103%
remaining activity at 0.625 µM [2, 8]: 96.1%
remaining activity at 1.5 µM [2, 7]: 107%
remaining activity at 3 µM [2, 7]: 104%
remaining activity at 15 µM [2, 7]: 79.4%
remaining activity at 37.5 µM [2, 7]: 38%
remaining activity at 37.5 µM [2, 8]: 38.8%
remaining activity at 75 µM [2, 7]: 13.6%
IC50 ([2]; B. taurus heart mitochondria): 27.2 µM
activity at 0.0001 µM ([2]; B. taurus, dose 0.0001 µM, Mean of replicates, read-out: Complex I activity, dose-response data): 104%
Complex I activity, dose-response data ([2]; B. taurus, dose 0.0001 µM, individual replicates (Rep)): 106.495 and 102.513 and 108.647
activity at 0.0001 µM ([2]; B. taurus, dose 0.0001 µM, individual replicates (Rep), read-out: Complex I activity, dose-response data): 97.6%
activity at 0.0005 µM ([2]; B. taurus, dose 0.0005 µM, Mean of replicates, read-out: Complex I activity, dose-response data): 101%
Complex I activity, dose-response data ([2]; B. taurus, dose 0.0005 µM, individual replicates (Rep)): 104.650 and 93.657 and 105.597
activity at 0.0005 µM ([2]; B. taurus, dose 0.0005 µM, individual replicates (Rep), read-out: Complex I activity, dose-response data): 99.4%
activity at 0.001 µM ([2]; B. taurus, dose 0.001 µM, Mean of replicates, read-out: Complex I activity, dose-response data): 105%
Complex I activity, dose-response data ([2]; B. taurus, dose 0.001 µM, individual replicates (Rep)): 106.670 and 104.354 and 107.534
activity at 0.001 µM ([2]; B. taurus, dose 0.001 µM, individual replicates (Rep), read-out: Complex I activity, dose-response data): 103%
activity at 0.0025 µM ([2]; B. taurus, dose 0.0025 µM, Mean of replicates, read-out: Complex I activity, dose-response data): 104%
Complex I activity, dose-response data ([2]; B. taurus, dose 0.0025 µM, individual replicates (Rep)): 99.492 and 117.130 and 91.896 and 108.464
activity at 0.005 µM ([2]; B. taurus, dose 0.005 µM, Mean of replicates, read-out: Complex I activity, dose-response data): 114%
Complex I activity, dose-response data ([2]; B. taurus, dose 0.005 µM, individual replicates (Rep)): 112.174 and 127.690 and 101.653 and 112.765
activity at 0.013 µM ([2]; B. taurus, dose 0.013 µM, Mean of replicates, read-out: Complex I activity, dose-response data): 99.8%
Complex I activity, dose-response data ([2]; B. taurus, dose 0.013 µM, individual replicates (Rep)): 108.528 and 89.880 and 103.599
activity at 0.013 µM ([2]; B. taurus, dose 0.013 µM, individual replicates (Rep), read-out: Complex I activity, dose-response data): 97.2%
activity at 0.025 µM ([2]; B. taurus, dose 0.025 µM, Mean of replicates, read-out: Complex I activity, dose-response data): 101%
Complex I activity, dose-response data ([2]; B. taurus, dose 0.025 µM, individual replicates (Rep)): 88.122 and 92.313 and 109.456
activity at 0.063 µM ([2]; B. taurus, dose 0.063 µM, Mean of replicates, read-out: Complex I activity, dose-response data): 103%
Complex I activity, dose-response data ([2]; B. taurus, dose 0.063 µM, individual replicates (Rep)): 101.538 and 112.181 and 91.251 and 105.094
activity at 0.125 µM ([2]; B. taurus, dose 0.125 µM, Mean of replicates, read-out: Complex I activity, dose-response data): 101%
Complex I activity, dose-response data ([2]; B. taurus, dose 0.125 µM, individual replicates (Rep)): 111.398 and 110.709 and 87.488 and 92.420
activity at 0.313 µM ([2]; B. taurus, dose 0.313 µM, Mean of replicates, read-out: Complex I activity, dose-response data): 112%
Complex I activity, dose-response data ([2]; B. taurus, dose 0.313 µM, individual replicates (Rep)): 118.464 and 105.228 and 106.985
activity at 0.313 µM ([2]; B. taurus, dose 0.313 µM, individual replicates (Rep), read-out: Complex I activity, dose-response data): 118%
activity at 0.625 µM ([2]; B. taurus, dose 0.625 µM, Mean of replicates, read-out: Complex I activity, dose-response data): 103%
Complex I activity, dose-response data ([2]; B. taurus, dose 0.625 µM, individual replicates (Rep)): 106.273 and 97.568 and 112.424
activity at 0.625 µM ([2]; B. taurus, dose 0.625 µM, individual replicates (Rep), read-out: Complex I activity, dose-response data): 96.1%
activity at 1.5 µM ([2]; B. taurus, dose 1.5 µM, Mean of replicates, read-out: Complex I activity, dose-response data): 107%
Complex I activity, dose-response data ([2]; B. taurus, dose 1.5 µM, individual replicates (Rep)): 108.615 and 114.555 and 94.027 and 109.488
activity at 3 µM ([2]; B. taurus, dose 3 µM, Mean of replicates, read-out: Complex I activity, dose-response data): 104%
Complex I activity, dose-response data ([2]; B. taurus, dose 3 µM, individual replicates (Rep)): 105.743 and 114.475 and 92.946 and 103.733
activity at 15 µM ([2]; B. taurus, dose 15 µM, Mean of replicates, read-out: Complex I activity, dose-response data): 79.4%
Complex I activity, dose-response data ([2]; B. taurus, dose 15 µM, individual replicates (Rep)): 82.876 and 90.607 and 69.676 and 74.384
activity at 37.5 µM ([2]; B. taurus, dose 37.5 µM, Mean of replicates, read-out: Complex I activity, dose-response data): 38%
Complex I activity, dose-response data ([2]; B. taurus, dose 37.5 µM, individual replicates (Rep)): 49.756 and 32.716 and 30.663
activity at 37.5 µM ([2]; B. taurus, dose 37.5 µM, individual replicates (Rep), read-out: Complex I activity, dose-response data): 38.8%
activity at 75 µM ([2]; B. taurus, dose 75 µM, Mean of replicates, read-out: Complex I activity, dose-response data): 13.6%
Complex I activity, dose-response data ([2]; B. taurus, dose 75 µM, individual replicates (Rep)): 6.165 and 16.790 and 16.865 and 14.475
IC50 ([2]; heart mitochondria): 27.2 µM
Log IC50 B. taurus complex I [2]: 1.43 µM
